Results as given in PubChem BioAssay (NCI).
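Assay format: 96-well plates, 48-hour exposure. Abbreviation: GI50, concentration required for 50% inhibition of growth. The concentration for full growth arrest is given as TGI.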

What was measured:
Experiment in all cases: inhibition of tumour cell growth, NCI panel, 48 h
UO-31 renal = test system: UO-31 renal
HS 578T breast = test system: HS 578T breast
MOLT-4 leukemia = test system: MOLT-4 leukemia
NCI-H460 lung = test system: NCI-H460 lung
BT-549 breast = test system: BT-549 breast
HCC-2998 colon = test system: HCC-2998 colon
NCI-H23 lung = test system: NCI-H23 lung
SR leukemia = test system: SR leukemia
SN12C renal = test system: SN12C renal
KM12 colon = test system: KM12 colon

Row | SMILES | GI50 (UO-31 renal) | TGI (UO-31 renal) | GI50 (HS 578T breast) | TGI (HS 578T breast) | GI50 (MOLT-4 leukemia) | TGI (MOLT-4 leukemia) | GI50 (NCI-H460 lung) | TGI (NCI-H460 lung) | GI50 (BT-549 breast) | TGI (BT-549 breast) | GI50 (HCC-2998 colon) | TGI (HCC-2998 colon) | GI50 (NCI-H23 lung) | TGI (NCI-H23 lung) | GI50 (SR leukemia) | TGI (SR leukemia) | GI50 (SN12C renal) | TGI (SN12C renal) | GI50 (KM12 colon) | TGI (KM12 colon)
1 | Cc1cc2c(cc1C)N(C(=O)CCl)CC(=O)N2 | 1.74 µM | 3.24 µM | 4.08 µM | 68.8 µM | 2.41 µM | 7.01 µM | 3.66 µM | 14.4 µM | 2.64 µM | 11.3 µM | 2.88 µM | 8.91 µM | 3.41 µM | 16.4 µM | 2.65 µM | 7.04 µM | 3.44 µM | 12 µM | 8.2 µM | 22.2 µM
2 | CN(O)c1nc(N(C)O)nc(N2CCOCC2)n1 | 2.41 µM | > 100 µM | 64.2 µM | > 100 µM | 7.09 µM | > 100 µM | 0.8 µM | > 100 µM | 5.34 µM | > 100 µM | 8.75 µM | > 100 µM | 12.4 µM | > 100 µM | 4.01 µM | > 100 µM | 7.48 µM | > 100 µM | 15.5 µM | > 100 µM
3 | COc1ccc2cc(C(=O)/C=C/c3ccc(Cl)cc3Cl)ccc2c1 | 15.5 µM | 32.3 µM | 28.1 µM | 73.7 µM | 4.01 µM | 17.7 µM | 70.7 µM | > 100 µM | 0.963 µM | 4.6 µM | 15.3 µM | 29.1 µM | 20.5 µM | 53.4 µM | 3.67 µM | 17.3 µM | 25.9 µM | 67.9 µM | 14.3 µM | 35 µM
4 | COc1cnc2c(c1)C(=O)c1c-2n(CCCn2ccnc2)c(=O)c2cc(F)ccc12 | < 0.01 µM | 0.147 µM | 0.504 µM | > 100 µM | < 0.01 µM | 0.131 µM | < 0.01 µM | 0.133 µM | 0.0688 µM | 2.86 µM | 0.361 µM | 79.5 µM | 0.0171 µM | 0.565 µM | < 0.01 µM | 0.76 µM | < 0.01 µM | > 100 µM | 0.0589 µM | 1.57 µM
5 | C#Cc1c(F)ccc2cc(O)cc(-c3ncc4c(N5CC6CCC(C5)N6)nc(OC[C@@]56CCCN5C[C@H](F)C6)nc4c3F)c12 | > 34.8 µM | > 50.2 µM | 8.47 µM | 28.2 µM | 8.72 µM | 28.4 µM | 6.87 µM | 21.2 µM | 8.22 µM | 22.8 µM | 1.32 µM | 17.5 µM | 1.94 µM | 15.1 µM | 6.53 µM | > 100 µM | 14.8 µM | 31 µM | 5.03 µM | 17.5 µM
6 | CCN(CC)CCCCNc1c2ccccc2[n+](C)c2c1[nH]c1ccccc12 | 3.13 µM | > 50.6 µM | 0.238 µM | 0.865 µM | 0.269 µM | 23.8 µM | 0.0837 µM | 2.27 µM | 1.67 µM | 4.15 µM | 0.27 µM | 0.763 µM | 0.221 µM | 1.07 µM | 0.373 µM | 42.2 µM | 0.0699 µM | 6.08 µM | 0.385 µM | 4.79 µM
7 | CC(=O)OCC1OC(n2cnc(C(N)=S)c2N)C(OC(C)=O)C1OC(C)=O (stereo not given) |  | > 100 µM |  | > 100 µM |  | > 100 µM |  | > 100 µM |  | > 100 µM |  | > 100 µM |  | > 100 µM |  | > 100 µM |  | > 100 µM |  | > 100 µM
